Patent EP0094586A2, “Glycerol derivatives, process for preparing same and pharmaceutical composition containing same” (ONO PHARMACEUTICAL CO., LTD., priority 1982, dated 1983)

Tests used:
[1] = molecular target: phospholipase A2 obtained from lung of guinea-pig; assay: Inhibitory effect on phospholipase A2 (modified method of Shakir, 14C-arachidonyl phosphatidylcholine substrate); assay type: biochemical; details: enzyme from lung of guinea-pig; substrate L-B-[1-14C]-arachidonyl-a'-stearoyl-phosphatidylcholine
Description: (2) Inhibitory effect on phospholipase A
The activity of the enzyme was examined by modification of the method of Shakir by using L-B-[1-^14C]- arachidonyl-a'-stearoyl-phosphatidylcholine as substrate and phospholipase A2 obtained from lung of guinea-pig as enzyme [cf. Anal. Biochem., 114, 67 (1981)].
(§1) The evaluation is conducted using the concentration of compounds of the present invention required to produce a 50% inhibition of each effect, i.e. IC50.

[2] = molecular target: phospholipase C obtained from lung of guinea-pig; assay: Inhibitory effect on phospholipase C (method of Rittenhouse-Simmons, 3H-labelled phosphatidyl-inositol substrate); assay type: biochemical; details: enzyme from lung of guinea-pig; substrate 3H-myoinositol labelled phosphatidyl-inositol from rat liver microsome
Description: (3) Inhibitory effect on phospholipase C
The activity of the enzyme was examined by the method of Rittenhouse-Simmons by using ^3H-myoinsitol labelled phosphatidyl-inositol biosynthesized in microsome of liver in rat as substrate and phospholipase C obtained from lung of guinea-pig as enzyme [cf. J. Clin. Invest., 63, 580 (1979)].
as §1

mice = assay: Acute toxicity by intravenous administration; assay type: in vivo; details: intravenously administered to tail vein in ten mice at the dose of 30 mg/kg
Description: On the other hand, it was confirmed that the acute toxicity of all extent of the compounds of the present invention was more than 30 mg/kg by intravenous administration. Therefore, glycerol derivatives of the present invention may be considered to be sufficiently safe and suitable for medical use. For example, the mortality (dead/used) in glycerol derivatives of the present invention, i.e. compounds prepared in Example l(g), l(v), 5(d), 12(b), 12(n), 12(o), 12(s) and 12(x) was 0/10, 0/10, 0/10, 1/10/ 0/10, 0/10, 0/10 and 0/10, respectively, when each glycerol compound was intravenously administered to tail vein in ten mice at the dose of 30 mg/kg.

[3] = molecular target: PAF-induced platelet aggregation (Cavia porcellus, UniProt P21556); assay: Inhibitory effect on PAF-induced platelet aggregation (method of Born, platelet rich plasma); assay type: cell-based; details: platelet rich plasma from male guinea-pig; PAF (10 nM)-induced aggregation
Description: (1) Inhibitory effect on PAF-induced platelet aggregation
A mixture of 9 parts of blood obtained from male guinea-pig, and one part of 3.8X trisodium citrate was centrifuged for 10 minutes at 120 x g at room temperature to obtain platelet rich plasma (PRP). Using obtained PRP, PAF (lOnM)-induced aggregation was determined by the method of Born [cf. J. Physiol., 162, 67 (1962)].
as §1

Sequence of PAF-induced platelet aggregation (P21556 whole entry): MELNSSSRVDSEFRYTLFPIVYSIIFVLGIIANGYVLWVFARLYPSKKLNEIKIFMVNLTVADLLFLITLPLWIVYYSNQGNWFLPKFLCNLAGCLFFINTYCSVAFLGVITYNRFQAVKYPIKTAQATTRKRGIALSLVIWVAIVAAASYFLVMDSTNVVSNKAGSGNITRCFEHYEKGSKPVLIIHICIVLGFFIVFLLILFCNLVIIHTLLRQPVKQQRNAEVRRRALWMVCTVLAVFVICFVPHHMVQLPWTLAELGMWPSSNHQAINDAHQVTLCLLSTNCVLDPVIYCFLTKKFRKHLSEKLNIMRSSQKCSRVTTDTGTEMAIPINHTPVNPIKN

Molecule	IC50 [1]	IC50 [2]	mortality (dead/used) (mice)	IC50 [3]
CCCCCCCCCCCCCCCCOCC(O)COCCCC[N+](C)(C)C (racemic) [5 (d), (2RS)-1-0-hexadecyl-3-0-[4-(N,N,N-trimethylammonio)butyl]glycerol halide]	240 µM	660 µM	0/10	–
CCCCCCCCCCCCCCCCOCC(COCCCC[N+](C)(C)C)SCC (racemic) [12 (s), (2RS)-l-0-hexadecyl-2-ethylthio-3-0-[4-(N,N,N-trimethylammonio)-butyl]-1,3-propanediol halide]	–	–	0/10	–
CCCCCCCCCCCCCCCCSCC(COCCCC[N+](C)(C)C)OCc1ccccc1 (racemic) [12 (b), (2RS)-1-hexadecylthio-2-0-benzyl-3-0-[4-(N,N,N-trimethylammanio)-butyl]-2,3-propanediol halide]	–	–	1/10	–
(2RS)-1-0-hexadecyl-2-[ethoxy(thiocarbonyl)thio]-3-0-[4-(N,N,N-trimethylammonio)butyl]-1,3-propanediol halide [12 (x)]	240 µM	200 µM	0/10	3.8 µM
CCCCCCCCCCCCCCCCOCC(COCCCC[N+](C)(C)C)OCc1ccccc1 (racemic) [1 (g), (2RS)-l-0-hexadecyl-2-0-benzyl-3-0-[4-(N,N,N-trimethylammonio)butyl]glycerol chloride]	130 µM	180 µM	0/10	–
CCCCCCCCCCCCCCCCOCC(COC(=O)CCC[N+](C)(C)C)OCc1ccccc1 (racemic) [1 (v), (2RS)-1-0-hexadecyl-2-0-benzyl-3-0-[4-(N,N,N-trimethylammonio)-butyryl]glycerol halide]	–	–	0/10	–
CCCCCCCCCCCCCCCCOCC(COCCCC[N+](C)(C)C)OC(=O)NC (racemic) [12 (o), (2RS)-1-0-hexadecyl-2-0-(N-methylcarbaraoyl)-3-0-[4-(N,N,N-trimethylammonio)butyl]glycerol halide]	–	–	0/10	–
CCCCCCCCCCCCCCCCOCC(COCCCC[N+](C)(C)C)OC(=O)c1ccccc1 (racemic) [12 (n), (2RS)-l-0-hexadecyl-2-0-benzoyl-3-0-[4-(N,N,N-trimethylammonio)-butyl]glycerol halide]	–	–	0/10	–
